From PubChem BioAssay (NCI)
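Method: 48-hour compound exposure of cells in 96-well plates, five concentrations, linear interpolation of endpoints. GI50 is the concentration that inhibits growth by half. TGI: total growth inhibition.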

Tests used:
Experiment in all cases: NCI anticancer screen, dose series, 48 h
[1] = tested on: OVCAR-5 ovarian
[2] = tested on: MOLT-4 leukemia
[3] = tested on: HS 578T breast
[4] = tested on: TK-10 renal
[5] = tested on: NCI-H522 lung
[6] = tested on: MDA-MB-435
[7] = tested on: RXF 393 renal
[8] = tested on: NCI-H23 lung
[9] = tested on: HOP-62 NSCLC
[10] = tested on: KM12 colon
[11] = tested on: HCT-15 colon
[12] = tested on: MCF7 breast
[13] = tested on: OVCAR-4 ovarian
[14] = tested on: EKVX NSCLC
[15] = tested on: BT-549 breast
[16] = tested on: OVCAR-8 ovarian
[17] = tested on: NCI-H226 lung
[18] = tested on: RPMI-8226 leukemia
[19] = tested on: IGROV1 ovarian
[20] = tested on: UACC-257 melanoma
[21] = tested on: SW-620 colon
[22] = tested on: M14 melanoma
[23] = tested on: ACHN renal
[24] = tested on: MALME-3M melanoma
[25] = tested on: UACC-62 melanoma
[26] = tested on: HCC-2998 colon
[27] = tested on: NCI-H460 lung
[28] = tested on: SR leukemia
[29] = tested on: MDA-MB-231 breast
[30] = tested on: SNB-19 CNS
[31] = tested on: T-47D breast
[32] = tested on: SK-OV-3 ovarian
[33] = tested on: HT29 colon
[34] = tested on: CCRF-CEM leukemia
[35] = tested on: DU-145 prostate
[36] = tested on: SF-539 CNS
[37] = tested on: SN12C renal
[38] = tested on: SNB-75 CNS
[39] = tested on: SK-MEL-5 melanoma
[40] = tested on: UO-31 renal
[41] = tested on: HL-60(TB) leukemia
[42] = tested on: A549 NSCLC
[43] = tested on: LOX IMVI melanoma
[44] = tested on: PC-3 prostate
[45] = tested on: A498 renal
[46] = tested on: HCT-116 colon
[47] = tested on: NCI/ADR-RES ovarian
[48] = tested on: U251 CNS
[49] = tested on: K-562 leukemia
[50] = tested on: HOP-92 NSCLC
[51] = tested on: OVCAR-3 ovarian
[52] = tested on: CAKI-1 renal
[53] = tested on: COLO 205 colon
[54] = tested on: SF-295 CNS
[55] = tested on: SF-268 CNS
[56] = tested on: SK-MEL-2 melanoma
[57] = tested on: 786-0 renal

C#CC#CC#CC#CC#CC#CC#CC#CC[C@@H]1OC[C@@H](COC(=O)O[C@@H](C(=O)O[C@H]2C[C@@]3(O)[C@@H](OC(=O)c4ccccc4)[C@@H]4[C@]5(OC(C)=O)CO[C@@H]5C[C@H](O)[C@@]4(C)C(=O)[C@H](OC(C)=O)C(=C2C)C3(C)C)[C@@H](NC(=O)c2ccccc2)c2ccccc2)O1
GI50 [1]: 333 nM
TGI [1]: > 33300 nM
GI50 [2]: 362 nM
TGI [2]: > 33300 nM
GI50 [3]: 239 nM
TGI [3]: > 8140 nM
GI50 [4]: 2250 nM
TGI [4]: > 33300 nM
GI50 [5]: 367 nM
TGI [5]: > 17600 nM
GI50 [6]: 39.4 nM
TGI [6]: 111 nM
GI50 [7]: 471 nM
TGI [7]: 2390 nM
GI50 [8]: 1040 nM
TGI [8]: > 33300 nM
GI50 [9]: 1130 nM
TGI [9]: > 33300 nM
GI50 [10]: 191 nM
TGI [10]: > 33300 nM
GI50 [11]: 1110 nM
TGI [11]: > 33300 nM
GI50 [12]: 87.2 nM
TGI [12]: > 33300 nM
GI50 [13]: > 8990 nM
TGI [13]: > 33300 nM
GI50 [14]: 2250 nM
TGI [14]: > 33300 nM
GI50 [15]: 639 nM
TGI [15]: > 33300 nM
GI50 [16]: 460 nM
TGI [16]: > 33300 nM
GI50 [17]: > 9560 nM
TGI [17]: > 33300 nM
GI50 [18]: 109 nM
TGI [18]: > 33300 nM
GI50 [19]: 404 nM
TGI [19]: > 33300 nM
GI50 [20]: > 15700 nM
TGI [20]: > 33300 nM
GI50 [21]: 188 nM
TGI [21]: > 33300 nM
GI50 [22]: 165 nM
TGI [22]: 1380 nM
GI50 [23]: 2020 nM
TGI [23]: > 33300 nM
GI50 [24]: 721 nM
TGI [24]: > 33300 nM
GI50 [25]: 815 nM
TGI [25]: > 33300 nM
GI50 [26]: 289 nM
TGI [26]: > 17500 nM
GI50 [27]: 101 nM
TGI [27]: > 33300 nM
GI50 [28]: 160 nM
TGI [28]: > 33300 nM
GI50 [29]: 650 nM
TGI [29]: > 33300 nM
GI50 [30]: 1080 nM
TGI [30]: > 33300 nM
GI50 [31]: 335 nM
TGI [31]: > 33300 nM
GI50 [32]: 897 nM
TGI [32]: > 33300 nM
GI50 [33]: 95 nM
TGI [33]: > 33300 nM
GI50 [34]: 354 nM
TGI [34]: > 33300 nM
GI50 [35]: 502 nM
TGI [35]: > 33300 nM
GI50 [36]: 248 nM
TGI [36]: 1990 nM
GI50 [37]: 1030 nM
TGI [37]: > 33300 nM
GI50 [38]: 59.9 nM
TGI [38]: 469 nM
GI50 [39]: 830 nM
TGI [39]: > 9150 nM
GI50 [40]: 3390 nM
TGI [40]: > 33300 nM
GI50 [41]: 163 nM
TGI [41]: > 33300 nM
GI50 [42]: 285 nM
TGI [42]: > 33300 nM
GI50 [43]: 93.5 nM
TGI [43]: > 33300 nM
GI50 [44]: 345 nM
TGI [44]: > 33300 nM
GI50 [45]: 332 nM
TGI [45]: > 6730 nM
GI50 [46]: 91.9 nM
TGI [46]: > 33300 nM
GI50 [47]: > 33300 nM
TGI [47]: > 33300 nM
GI50 [48]: 316 nM
TGI [48]: > 33300 nM
GI50 [49]: 170 nM
TGI [49]: > 33300 nM
TGI [50]: > 33300 nM
GI50 [51]: 142 nM
GI50 [52]: 477 nM
TGI [52]: > 33300 nM
GI50 [53]: 181 nM
TGI [53]: > 33300 nM
GI50 [54]: 579 nM
TGI [54]: 2410 nM
GI50 [55]: 593 nM
TGI [55]: > 33300 nM
GI50 [56]: 1280 nM
TGI [56]: > 33300 nM
GI50 [57]: 1090 nM
TGI [57]: > 33300 nM
